Test results: patent US20250257034A1, “INDOLE DERIVATIVES AS SEROTONERGIC AGENTS USEFUL FOR THE TREATMENT OF DISORDERS RELATED THERETO” (priority 2023, published 2025)
Read-outs that look alike come from different tables or passages of the source.

Legend:
human 5-HT2C receptor = molecular target: T1, human 5-HT2C receptor (Homo sapiens, UniProt P28335); assay: cell-based
T1 construct: expressed in transfected cells; host or cells: U2OS, stably transfected
T1 sequence (P28335 33-458): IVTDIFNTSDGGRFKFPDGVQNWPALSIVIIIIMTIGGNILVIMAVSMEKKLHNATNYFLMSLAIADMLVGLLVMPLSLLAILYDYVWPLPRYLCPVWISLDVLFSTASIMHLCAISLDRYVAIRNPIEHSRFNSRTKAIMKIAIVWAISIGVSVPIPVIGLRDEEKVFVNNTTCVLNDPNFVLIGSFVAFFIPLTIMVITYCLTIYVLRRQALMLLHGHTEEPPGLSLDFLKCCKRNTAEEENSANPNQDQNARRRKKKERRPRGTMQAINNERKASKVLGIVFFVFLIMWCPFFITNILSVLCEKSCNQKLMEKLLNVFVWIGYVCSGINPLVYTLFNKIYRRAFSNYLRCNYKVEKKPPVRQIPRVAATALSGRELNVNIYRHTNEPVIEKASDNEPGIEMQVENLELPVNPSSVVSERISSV

human 5-HT2A receptor = human 5-HT2A receptor (Homo sapiens, UniProt P28223); assay: h-5HT2A β-arrestin reporter assay in U2OS cells; type: cell-based; set-up: expressed in transfected cells
Procedure: (§1) Compound potency (EC50) and efficacy (Max response) against the human 5-HT2A receptor in stably transfected U2OS cells was determined in a G protein-coupled receptors (GPCR) cell based p-arrestin reporter assay. Cells were seeded in a total volume of 20 μL into white walled, 384-well microplates and incubated at 37° C. overnight before analysis. For agonist determination, cells were incubated with sample to induce response. Intermediate dilution of sample stocks was performed to generate 5×sample in assay buffer. 5 μL of 5×sample was added to cells and incubated at 37° C. for 120 minutes. Final assay vehicle concentration was 1%.
as §1, with “5-HT2Areceptor” for “5-HT2A receptor”, “GPCR” for “G protein-coupled receptors (GPCR)”, “P-arrestin” for “p-arrestin”

5-HT2B receptor [1] = molecular target: T2, 5-HT2B receptor (Homo sapiens, UniProt P41595); assay: Human 5-HT2B radioligand binding assay ([3H]-LSD); set-up: host or cells: cell membrane, dosed as 1 unit/well
Procedure: The objective of this study was to evaluate the binding properties of test compounds on 5-HT2B.
1) The assay buffer was prepared following Table 25-below.
2) Eight doses of reference and test compounds starting from 10 mM stock solution as requested by 5-fold serial dilutions with 100% (v/v) DMSO.
3) UniFilter-96 GF/B plate was pretreated: • a. 50 μl/well of 0.5% (v/v) PEI to UniFilter-96 G F/B plates. The plates were sealed and incubated at 4° C. for 3 hrs. • b. After incubation, the plates were washed 3 times with ice-cold wash buffer (50 mM Tris, pH7.4).
4) Assay plate preparation: • a. Cell membrane was diluted with assay buffer and 330 μl/well added to 96 round deep well plates to reach a concentration of 1 unit/well. • b. Eight concentrations of reference or test compounds were prepared and 110 μl/well added to 96 round deep well plates. • c. [3H]-LSD was diluted with assay buffer to 5 nM (5×final concentration) and 110 μl/well was added to 96 round deep well plates.
5) The plate was centrifuged at 1000 rpm for 30 secs and then agitate at 600 rpm, R.T. for 5 min.
6) The plates were sealed and incubated at 37° C. for 90 min.
7) The incubation was stopped by vacuum filtration onto GF/B filter plates followed by 4 times washing with ice-cold wash buffer (50 mM Tris, pH7.4).
9) The filter plates were sealed and 40 μl/well of scintillation cocktail was added.
10) The plate was read using a Microbeta2 microplate counter.
(§2) For reference and test compounds, the results are expressed as % Inhibition, using the normalization equation: N=100-100x(U-C2)/(C1-C2), where U is the unknown value, Cl is the average of high controls, and C2 is the average of low controls. The IC50 is determined by fitting percentage of inhibition as a function of compound concentrations with Hill equation using XLfit.
1) The assay buffer was prepared following Table 54 below.
7) The incubation was stopped by vacuum filtration onto G F/B filter plates followed by 4 times washing with ice-cold wash buffer (50 mM Tris, pH7.4).
as §2, with “N=100−100×(U−C2)/(C1−C2),” for “N=100-100x(U-C2)/(C1-C2),”, “C1” for “Cl”

5-HT2B receptor [2] = molecular target: T2, 5-HT2B receptor; assay: h-5HT2B FLIPR calcium mobilization assay in HEK293 cells; type: cell-based; set-up: expressed in transfected cells; host or cells: HEK293, stably transfected
Procedure: Compound potency (EC50) and efficacy (Max response) against the human 5-HT2B receptor in stably transfected HEK293 cells was determined in a calcium mobilization-based assay.
Cells were seeded in a total volume of 20 μL into white walled, 384-well microplates and incubated at 37° C. overnight. Prior to testing, cell plating media was exchanged with 20 μL of Dye Loading buffer (HBSS+20 mM HEPES containing 1×Dye, 1×Additive A and 2.5 mM Probenecid). Plates were incubated at 37° C. for 45 mins followed by 15 mins at room temperature.
(§3) 10 μl of assay buffer (HBSS+20 mM HEPES) was added to cells. Intermediate dilution of sample stocks was performed to generate 4×sample in assay buffer. Assay plates, compound plates were loaded into F LIP R instrument. 10 μL of sample was added using F LIP R onboard robotics after 5 seconds of starting calcium measurement. Final assay vehicle concentration was 1%. The results are expressed as a percent efficacy relative to the maximum response of the control ligand (serotonin) in Table 28.
as §3, with “57.” for “28.”

[3] = calcium mobilization, U2OS cells (Table 30)
[4] = relative to maximum response of serotonin (Table 30)
[5] = relative to maximum response of control ligand serotonin
[6] = relative to maximum response of serotonin (Table 28)
[7] = β-arrestin reporter, U2OS cells
[8] = FLIPR calcium mobilization, U2OS cells

Sequence of human 5-HT2A receptor (P28223 whole entry): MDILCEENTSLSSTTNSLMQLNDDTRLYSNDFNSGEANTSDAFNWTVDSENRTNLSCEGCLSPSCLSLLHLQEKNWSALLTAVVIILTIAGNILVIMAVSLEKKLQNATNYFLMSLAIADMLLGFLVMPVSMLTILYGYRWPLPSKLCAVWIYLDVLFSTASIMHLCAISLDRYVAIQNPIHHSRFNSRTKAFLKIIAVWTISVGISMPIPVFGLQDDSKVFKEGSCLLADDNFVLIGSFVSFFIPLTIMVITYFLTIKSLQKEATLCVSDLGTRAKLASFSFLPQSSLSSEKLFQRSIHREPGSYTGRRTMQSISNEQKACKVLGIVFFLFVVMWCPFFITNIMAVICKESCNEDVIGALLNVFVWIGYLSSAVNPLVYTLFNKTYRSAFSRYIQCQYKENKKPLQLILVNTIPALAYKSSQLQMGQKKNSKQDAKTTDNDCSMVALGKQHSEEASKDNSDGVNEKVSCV
T2 sequence (P41595 whole entry): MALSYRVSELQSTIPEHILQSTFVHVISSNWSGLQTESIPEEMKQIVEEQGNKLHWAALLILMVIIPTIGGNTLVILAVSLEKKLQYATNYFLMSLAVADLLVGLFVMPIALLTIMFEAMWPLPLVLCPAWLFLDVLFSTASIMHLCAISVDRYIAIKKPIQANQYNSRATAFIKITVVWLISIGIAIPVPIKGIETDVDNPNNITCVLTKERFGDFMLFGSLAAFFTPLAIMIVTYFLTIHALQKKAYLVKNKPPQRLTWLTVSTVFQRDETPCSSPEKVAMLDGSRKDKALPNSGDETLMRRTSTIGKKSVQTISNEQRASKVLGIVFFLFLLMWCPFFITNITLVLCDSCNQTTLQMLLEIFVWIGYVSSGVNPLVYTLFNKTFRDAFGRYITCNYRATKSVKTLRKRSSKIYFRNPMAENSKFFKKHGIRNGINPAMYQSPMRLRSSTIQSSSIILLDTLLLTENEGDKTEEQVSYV

SMILES	EC50 (human 5-HT2A receptor) [nM]	Emax (% of serotonin) (human 5-HT2A receptor; [5])	IC50 (5-HT2B receptor [1]) [nM]	Ki (5-HT2B receptor [1]) [nM]	EC50 (5-HT2B receptor [2]) [nM]	further results
[2H]C([2H])([2H])N(CCc1c[nH]c2ccc(SC)cc12)C([2H])([2H])[2H] [Compound I-1, N,N-Bis(methyl-d3)-2-(5-(methylthio)-1H-indol-3-yl)ethan-1-amine]	58.4	74 % of serotonin	74.5	38.6	> 10000	EC50 (human 5-HT2C receptor; [3]): 2.37 nM; Emax (% of serotonin) (human 5-HT2C receptor; [4]): 98.89 % of serotonin; Emax (% of serotonin) (5-HT2B receptor [2]; [6]): 19.8 % of serotonin
CSc1ccc2[nH]cc(CCN(C)C(C)C)c2c1 [Compound I-19, N-Methyl-N-(2-(5-(methylthio)-1H-indol-3-yl)ethyl)propan-2-amine]			276	143		
COc1ccc2[nH]cc(CCN(C)CCOC(F)F)c2c1 [Compound I-71, 2-(Difluoromethoxy)-N-(2-(5-methoxy-1H-indol-3-yl)ethyl)-N-methylethan-1-amine]						IC50 (5-HT2B receptor [1]; [3H]-LSD displacement (Table 55), read-out: 5-HT2B, IC50): 171 nM; Ki (5-HT2B receptor [1]; [3H]-LSD displacement (Table 55), read-out: 5-HT2B, Ki): 88.6 nM
CN(C)CCc1c[nH]c2ccccc12 [DMT]		38.86 % of serotonin				Emax (% of serotonin) (human 5-HT2A receptor; [7]): 38.86 % of serotonin; EC50 (human 5-HT2A receptor; β-arrestin reporter, U2OS cells, 120 min, read-out: EC50): 114 nM; EC50 (human 5-HT2A receptor; β-arrestin reporter, U2OS cells, read-out: EC50): 114 nM
CCN(C)CCc1c[nH]c2ccc(SC)cc12 [Compound I-13, N-Ethyl-N-methyl-2-(5-(methylthio)-1H-indol-3-yl)ethan-1-amine]	59.5	75.27 % of serotonin	64	33.1	> 10000	EC50 (human 5-HT2C receptor; [3]): 2.89 nM; Emax (% of serotonin) (human 5-HT2C receptor; [4]): 92.77 % of serotonin; Emax (% of serotonin) (5-HT2B receptor [2]; [6]): 21.04 % of serotonin
CCN(CC)CCc1c[nH]c2ccc(SC)cc12 [Compound I-12, N,N-Diethyl-2-(5-(methylthio)-1H-indol-3-yl)ethan-1-amine]			451	233		
CSc1ccc2[nH]cc(CCN(C(C)C)C(C)C)c2c1 [Compound I-17, N-Isopropyl-N-(2-(5-(methylthio)-1H-indol-3-yl)ethyl)propan-2-amine]			221	114		
COc1ccc2[nH]cc(CCN3CC[C@H](OC(F)F)C3)c2c1 [(S) I-67, (S)-3-(2-(3-(Difluoromethoxy)pyrrolidin-1-yl)ethyl)-5-methoxy-1H-indole]	2070				> 10000	EC50 (human 5-HT2C receptor; [8]): 2690 nM; Emax (% of serotonin) (human 5-HT2C receptor; [8]): 75.3 % of serotonin; Emax (% of serotonin) (human 5-HT2A receptor; [7]): 38.02 % of serotonin; Emax (% of serotonin) (5-HT2B receptor [2]; relative to maximum response of serotonin (Table 57)): 4.23 % of serotonin
